# According to ChEMBL document CHEMBL1201862, “PubChem BioAssay data set” (2004):
# Activity calls are given as the source filed them.
# Tests used:
# Large T antigen = Large T antigen (Simian virus 40, UniProt P03070); type: functional, Betapolyomavirus macacae;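 note: Confirmatory-stage PubChem screen for compounds that inhibit SV40 T antigen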
# Genome polyprotein = Genome polyprotein (dengue virus type 2, UniProt P29990); assay: flavivirus cap methylation enzyme inhibition – biochemical, confirmation dose response, primary screen (AID 588689); type: functional
# Sequence of Genome polyprotein (P29990 2492-3391 limits assumed): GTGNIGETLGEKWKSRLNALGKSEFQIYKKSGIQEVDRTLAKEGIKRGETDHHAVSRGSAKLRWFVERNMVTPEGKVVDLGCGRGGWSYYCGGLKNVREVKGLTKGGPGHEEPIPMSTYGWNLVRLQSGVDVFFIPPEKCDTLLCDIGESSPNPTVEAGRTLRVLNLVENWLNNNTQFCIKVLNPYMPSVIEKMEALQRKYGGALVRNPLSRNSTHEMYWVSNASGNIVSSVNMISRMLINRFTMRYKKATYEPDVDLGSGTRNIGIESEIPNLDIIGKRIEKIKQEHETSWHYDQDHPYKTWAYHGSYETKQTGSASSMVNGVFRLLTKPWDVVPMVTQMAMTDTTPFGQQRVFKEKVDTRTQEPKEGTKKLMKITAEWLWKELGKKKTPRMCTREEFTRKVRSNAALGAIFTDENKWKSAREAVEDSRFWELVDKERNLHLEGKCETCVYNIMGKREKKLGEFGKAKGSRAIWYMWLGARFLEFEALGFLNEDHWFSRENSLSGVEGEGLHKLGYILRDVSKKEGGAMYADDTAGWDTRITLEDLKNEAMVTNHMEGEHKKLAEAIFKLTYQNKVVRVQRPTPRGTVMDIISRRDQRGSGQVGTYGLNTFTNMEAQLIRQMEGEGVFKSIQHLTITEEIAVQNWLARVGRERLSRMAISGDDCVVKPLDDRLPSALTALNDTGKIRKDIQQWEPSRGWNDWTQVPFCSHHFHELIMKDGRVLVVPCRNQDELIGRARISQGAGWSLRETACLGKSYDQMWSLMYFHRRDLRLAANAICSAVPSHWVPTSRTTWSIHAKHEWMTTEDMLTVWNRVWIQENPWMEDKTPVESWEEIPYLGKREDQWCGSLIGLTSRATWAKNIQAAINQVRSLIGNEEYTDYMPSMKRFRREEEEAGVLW
# Coagulation factor XII = molecular target: T1, Coagulation factor XII (Homo sapiens, UniProt P00748); type: functional;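 note: activated factor XIIa alpha cleaving a fluorogenic AMC peptide substrate; inhibitor potency from loss of enzyme activity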
# T1 sequence (P00748 whole entry): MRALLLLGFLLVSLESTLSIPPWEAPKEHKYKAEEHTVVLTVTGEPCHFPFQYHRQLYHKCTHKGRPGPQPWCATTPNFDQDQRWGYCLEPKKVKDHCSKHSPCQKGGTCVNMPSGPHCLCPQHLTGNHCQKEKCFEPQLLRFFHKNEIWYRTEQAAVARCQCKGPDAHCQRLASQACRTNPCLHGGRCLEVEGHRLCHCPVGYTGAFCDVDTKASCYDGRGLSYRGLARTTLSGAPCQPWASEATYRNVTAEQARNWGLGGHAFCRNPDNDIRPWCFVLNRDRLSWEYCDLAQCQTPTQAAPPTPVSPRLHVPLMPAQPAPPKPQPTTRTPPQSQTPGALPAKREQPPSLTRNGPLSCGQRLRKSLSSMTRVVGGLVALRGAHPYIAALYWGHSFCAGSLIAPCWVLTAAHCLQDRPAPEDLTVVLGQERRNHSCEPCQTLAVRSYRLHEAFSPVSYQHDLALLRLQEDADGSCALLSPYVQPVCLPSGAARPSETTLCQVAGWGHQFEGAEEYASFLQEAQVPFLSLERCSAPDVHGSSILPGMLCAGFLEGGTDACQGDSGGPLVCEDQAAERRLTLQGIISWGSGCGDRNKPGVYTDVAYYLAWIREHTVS
# Cytochrome P450 3A4 = Cytochrome P450 3A4 (Homo sapiens, UniProt P08684);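 note: CYP3A4 tested as one member of a cytochrome P450 panel screen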
# Sequence of Cytochrome P450 3A4 (P08684 whole entry): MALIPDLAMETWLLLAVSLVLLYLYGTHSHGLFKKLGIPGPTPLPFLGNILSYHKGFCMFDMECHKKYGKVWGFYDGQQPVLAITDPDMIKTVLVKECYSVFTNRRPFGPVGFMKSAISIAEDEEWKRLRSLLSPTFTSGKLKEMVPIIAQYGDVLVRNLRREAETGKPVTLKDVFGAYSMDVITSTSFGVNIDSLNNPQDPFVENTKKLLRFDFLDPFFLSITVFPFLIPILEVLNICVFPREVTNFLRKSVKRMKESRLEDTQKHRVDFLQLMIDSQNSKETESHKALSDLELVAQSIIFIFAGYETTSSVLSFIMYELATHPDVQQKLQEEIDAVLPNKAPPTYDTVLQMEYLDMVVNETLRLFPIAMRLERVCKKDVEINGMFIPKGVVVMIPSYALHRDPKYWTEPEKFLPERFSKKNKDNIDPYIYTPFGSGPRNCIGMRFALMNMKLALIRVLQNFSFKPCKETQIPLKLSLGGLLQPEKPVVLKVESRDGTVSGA
# Cytochrome P450 2C19 = Cytochrome P450 2C19 (Homo sapiens, UniProt P33261); assay: Cytochrome panel assay with activity outcomes. Panel member name: p450-cyp2c19 Compounds with AC50 equal or less than 10 uM are considered active; type: functional; conditions: read-out: AC50
# Sequence of Cytochrome P450 2C19 (P33261 whole entry): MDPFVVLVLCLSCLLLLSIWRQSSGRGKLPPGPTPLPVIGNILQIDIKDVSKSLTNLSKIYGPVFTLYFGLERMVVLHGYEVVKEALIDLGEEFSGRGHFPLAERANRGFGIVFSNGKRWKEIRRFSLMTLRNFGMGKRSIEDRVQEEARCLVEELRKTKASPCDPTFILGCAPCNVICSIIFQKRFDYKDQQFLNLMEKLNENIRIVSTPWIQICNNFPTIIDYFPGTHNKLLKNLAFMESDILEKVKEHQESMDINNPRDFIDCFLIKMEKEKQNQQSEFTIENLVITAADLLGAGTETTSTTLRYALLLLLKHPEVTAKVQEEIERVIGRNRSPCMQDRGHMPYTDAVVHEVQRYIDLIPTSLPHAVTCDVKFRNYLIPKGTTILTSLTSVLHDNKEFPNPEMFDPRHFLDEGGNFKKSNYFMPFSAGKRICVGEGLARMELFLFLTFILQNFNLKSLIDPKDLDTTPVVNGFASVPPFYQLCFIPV
# Cytochrome P450 2C9 = Cytochrome P450 2C9 (Homo sapiens, UniProt P11712)
# Sequence of Cytochrome P450 2C9 (P11712 whole entry): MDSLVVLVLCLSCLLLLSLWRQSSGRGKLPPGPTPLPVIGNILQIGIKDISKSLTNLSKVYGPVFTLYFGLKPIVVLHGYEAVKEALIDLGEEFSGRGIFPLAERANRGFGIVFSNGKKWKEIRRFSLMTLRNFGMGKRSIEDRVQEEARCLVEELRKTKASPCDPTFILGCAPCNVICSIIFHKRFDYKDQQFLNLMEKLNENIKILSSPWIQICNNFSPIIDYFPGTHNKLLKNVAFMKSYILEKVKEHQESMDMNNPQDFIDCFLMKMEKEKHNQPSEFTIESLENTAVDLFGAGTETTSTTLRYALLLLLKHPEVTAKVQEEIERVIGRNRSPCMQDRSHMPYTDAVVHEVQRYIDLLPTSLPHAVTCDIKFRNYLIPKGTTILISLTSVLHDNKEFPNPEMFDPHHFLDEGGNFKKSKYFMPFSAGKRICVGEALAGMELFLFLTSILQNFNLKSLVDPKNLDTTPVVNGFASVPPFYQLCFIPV
# [1] = viability of PTEN-deleted HCT116 cells – cell-based, HCT116 PTEN knockout, dose response (AID 1047); type: functional;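 note: HCT116 colon tumor cells with PTEN knocked out; cells exposed to compound for 60 hours before readout; potency for loss of cell viability measured by luminescence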
# [2] = viability of HCT116 lacking mutant beta-catenin – cell-based, human colon tumor, dose response (AID 1045); type: functional;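 note: HCT116 colon tumor cells with beta catenin knocked out; cells exposed to compound for 60 hours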
# [3] = viability of uninfected HEp-2 cells – cell-based, HTS, cytotoxicity control for RSV inhibitor project, dose response (AID 2410); type: functional; conditions: human respiratory syncytial virus
# [4] = molecular target: FAD-linked sulfhydryl oxidase ALR (Homo sapiens, UniProt P55789); assay: ALR-catalysed DTT oxidation blockers – biochemical, H2O2 detection, luminescence, cherry-pick, dose response (AID 493248)
# Sequence of FAD-linked sulfhydryl oxidase ALR (P55789 whole entry): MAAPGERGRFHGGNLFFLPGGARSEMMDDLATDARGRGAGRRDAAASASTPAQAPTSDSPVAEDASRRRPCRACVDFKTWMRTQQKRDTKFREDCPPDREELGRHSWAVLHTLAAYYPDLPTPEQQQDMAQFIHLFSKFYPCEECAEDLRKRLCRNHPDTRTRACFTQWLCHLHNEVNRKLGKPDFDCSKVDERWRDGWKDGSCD
# Cytochrome P450 1A2 = molecular target: T2, Cytochrome P450 1A2 (Homo sapiens, UniProt P05177);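 note: PubChem cytochrome P450 panel assay, CYP1A2 panel member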
# T2 sequence (P05177 whole entry): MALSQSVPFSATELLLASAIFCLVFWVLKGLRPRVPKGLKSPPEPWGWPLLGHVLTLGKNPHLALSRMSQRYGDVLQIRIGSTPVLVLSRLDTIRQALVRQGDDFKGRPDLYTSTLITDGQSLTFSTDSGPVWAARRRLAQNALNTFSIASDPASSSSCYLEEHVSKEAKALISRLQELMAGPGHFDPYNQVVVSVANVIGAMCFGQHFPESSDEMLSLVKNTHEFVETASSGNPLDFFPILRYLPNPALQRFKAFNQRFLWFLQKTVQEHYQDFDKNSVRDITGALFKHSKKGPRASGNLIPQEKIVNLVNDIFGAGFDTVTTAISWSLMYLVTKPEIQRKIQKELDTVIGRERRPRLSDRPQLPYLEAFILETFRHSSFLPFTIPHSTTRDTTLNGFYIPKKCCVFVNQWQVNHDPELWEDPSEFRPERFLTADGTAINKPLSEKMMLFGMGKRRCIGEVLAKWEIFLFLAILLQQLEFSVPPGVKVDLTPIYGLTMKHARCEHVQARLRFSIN
# [5] = Luminescence Cell-Based Dose Confirmation HTS to Identify Inhibitors of Platelet Dense Granule Release. [Related pubchem assays: 1663 (Primary HTS), 1678 (Summary of Project)]; type: functional
# [6] = molecular target: Luciferin 4-monooxygenase (Photinus pyralis, UniProt P08659); assay: inhibition of purified Photinus pyralis luciferase – biochemical, luminescence, dose response (AID 1891)
# Sequence of Luciferin 4-monooxygenase (P08659 whole entry): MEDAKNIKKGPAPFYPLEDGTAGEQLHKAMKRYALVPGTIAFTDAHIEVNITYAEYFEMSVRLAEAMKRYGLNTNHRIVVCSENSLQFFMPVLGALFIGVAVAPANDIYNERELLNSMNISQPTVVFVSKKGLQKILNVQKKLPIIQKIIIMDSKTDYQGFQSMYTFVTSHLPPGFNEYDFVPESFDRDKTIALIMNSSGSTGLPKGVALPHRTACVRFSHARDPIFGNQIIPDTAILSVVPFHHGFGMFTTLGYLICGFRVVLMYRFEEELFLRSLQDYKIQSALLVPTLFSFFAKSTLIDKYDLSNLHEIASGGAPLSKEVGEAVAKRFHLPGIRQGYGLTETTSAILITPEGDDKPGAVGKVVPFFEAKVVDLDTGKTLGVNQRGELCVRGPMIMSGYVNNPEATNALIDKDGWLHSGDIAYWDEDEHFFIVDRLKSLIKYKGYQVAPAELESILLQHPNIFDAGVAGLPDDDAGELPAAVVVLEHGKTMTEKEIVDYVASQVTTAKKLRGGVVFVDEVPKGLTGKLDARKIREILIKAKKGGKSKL
# Streptokinase A = molecular target: T3, Streptokinase A (Streptococcus pyogenes serotype M1, UniProt P10520); assay: viability-normalized secreted streptokinase activity reduction – plasminogen activation absorbance, OD405, dose response (AID 1914); type: functional, Streptococcus pyogenes M1 GAS;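 note: secreted streptokinase activity via plasminogen activation per viability signal from cell pellet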
# T3 sequence (P10520 whole entry): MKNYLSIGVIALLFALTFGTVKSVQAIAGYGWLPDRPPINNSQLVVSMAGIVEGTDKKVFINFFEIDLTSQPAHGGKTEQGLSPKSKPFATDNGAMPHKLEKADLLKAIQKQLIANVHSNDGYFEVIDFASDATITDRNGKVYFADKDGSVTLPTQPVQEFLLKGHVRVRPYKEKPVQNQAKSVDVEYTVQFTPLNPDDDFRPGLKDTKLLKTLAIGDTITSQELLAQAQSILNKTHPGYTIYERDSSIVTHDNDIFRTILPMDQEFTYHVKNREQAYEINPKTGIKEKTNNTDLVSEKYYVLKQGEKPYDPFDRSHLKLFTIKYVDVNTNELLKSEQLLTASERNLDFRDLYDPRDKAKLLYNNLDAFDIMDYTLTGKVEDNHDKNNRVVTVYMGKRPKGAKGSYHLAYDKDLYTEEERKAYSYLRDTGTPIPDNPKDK
# Streptococcus = assay: GAS UMAA2166 growth inhibition – luminescence, BacTiterGlo, counter-screen for streptokinase expression inhibitor project, dose response (AID 1915); type: functional, organism-based;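 note: potency for reduction of bacterial viability or growth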
# [7] = molecular target: T4, RNA-binding protein pos-1 (Caenorhabditis elegans, UniProt G5EF15); assay: disruptors of C. elegans POS-1 RNA interaction – biochemical, fluorescence polarization, dose response (AID 1964);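 note: purified POS-1 fused to maltose binding protein made in E. coli; potency of compounds blocking POS-1 binding to fluorescent RNA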
# T4 sequence (G5EF15 whole entry): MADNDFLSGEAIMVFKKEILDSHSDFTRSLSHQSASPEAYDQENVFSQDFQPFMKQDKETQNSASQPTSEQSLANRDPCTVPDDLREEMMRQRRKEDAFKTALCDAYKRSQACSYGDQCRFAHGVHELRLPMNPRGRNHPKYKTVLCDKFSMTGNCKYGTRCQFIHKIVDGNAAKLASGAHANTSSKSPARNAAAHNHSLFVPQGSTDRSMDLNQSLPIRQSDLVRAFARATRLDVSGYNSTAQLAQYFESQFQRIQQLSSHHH
# [8] = molecular target: T5, Zinc finger protein mex-5 (Caenorhabditis elegans, UniProt Q9XUB2); assay: potency of MEX-5 RNA-binding blockers – biochemical, C. elegans, fluorescence polarization, dose response (AID 1960)
# T5 sequence (Q9XUB2 whole entry): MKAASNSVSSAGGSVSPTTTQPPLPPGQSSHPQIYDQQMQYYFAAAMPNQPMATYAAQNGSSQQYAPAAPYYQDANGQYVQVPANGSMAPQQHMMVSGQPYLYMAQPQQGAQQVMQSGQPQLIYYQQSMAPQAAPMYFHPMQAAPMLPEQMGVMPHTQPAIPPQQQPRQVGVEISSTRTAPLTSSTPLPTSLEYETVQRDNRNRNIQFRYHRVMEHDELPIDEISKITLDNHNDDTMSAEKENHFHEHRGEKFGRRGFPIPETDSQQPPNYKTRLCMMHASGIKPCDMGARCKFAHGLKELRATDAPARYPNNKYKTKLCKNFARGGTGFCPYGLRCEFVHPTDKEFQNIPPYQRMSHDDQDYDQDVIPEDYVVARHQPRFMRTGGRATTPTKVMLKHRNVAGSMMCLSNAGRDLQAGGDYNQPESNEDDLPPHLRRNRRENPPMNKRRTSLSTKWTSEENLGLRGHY
# [9] = test system: Streptococcus sp. 'group A'; assay: Streptococcus pyogenes SK(-)GAS viability under kanamycin – luminescence, BacTiterGlo, confirmation, counter-screen for streptokinase expression inhibitor project, dose response (AID 1900); type: functional, organism-based
# [10] = non-specific 3'UTR reporter inhibition in Clone20-Shn3RL – cell-based, Renilla luciferase, cherry-picked, counter-screen for Shn3 inhibitor project, dose response (AID 624133); type: functional
# [11] = reduction of Shn3 3'UTR-driven luciferase in osteoblasts – cell-based, Clone20 osteoblasts, firefly luciferase, cherry-picked, dose response (AID 624132); type: functional;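 note: firefly luciferase luminescence from reporter carrying the Shn3 3'UTR in osteoblasts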
# [12] = molecular target: T6, Rac GTPase-activating protein 1 (Homo sapiens, UniProt Q9H0H5); assay: blockers of MgcRacGAP-driven Rac1 GTP hydrolysis – biochemical, ADP Hunter fluorescence, primary and confirmatory, confirmation (AID 624330); type: functional
# T6 sequence (Q9H0H5 whole entry): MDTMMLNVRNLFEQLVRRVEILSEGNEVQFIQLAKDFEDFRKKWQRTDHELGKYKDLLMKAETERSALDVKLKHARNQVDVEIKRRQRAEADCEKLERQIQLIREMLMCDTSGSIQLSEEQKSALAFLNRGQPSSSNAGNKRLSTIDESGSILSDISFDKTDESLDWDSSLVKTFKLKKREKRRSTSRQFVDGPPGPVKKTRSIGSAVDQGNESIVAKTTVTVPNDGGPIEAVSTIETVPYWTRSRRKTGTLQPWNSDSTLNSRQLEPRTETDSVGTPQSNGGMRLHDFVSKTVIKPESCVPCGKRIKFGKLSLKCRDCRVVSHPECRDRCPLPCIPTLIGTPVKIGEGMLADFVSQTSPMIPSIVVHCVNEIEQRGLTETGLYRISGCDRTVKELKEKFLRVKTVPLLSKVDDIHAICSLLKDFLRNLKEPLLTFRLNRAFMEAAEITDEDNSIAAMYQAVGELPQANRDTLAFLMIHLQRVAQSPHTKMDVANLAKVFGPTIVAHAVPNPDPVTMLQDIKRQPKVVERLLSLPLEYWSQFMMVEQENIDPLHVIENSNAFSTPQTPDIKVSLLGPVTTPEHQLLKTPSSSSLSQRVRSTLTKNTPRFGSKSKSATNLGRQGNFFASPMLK
# Sequence of Large T antigen (P03070 whole entry): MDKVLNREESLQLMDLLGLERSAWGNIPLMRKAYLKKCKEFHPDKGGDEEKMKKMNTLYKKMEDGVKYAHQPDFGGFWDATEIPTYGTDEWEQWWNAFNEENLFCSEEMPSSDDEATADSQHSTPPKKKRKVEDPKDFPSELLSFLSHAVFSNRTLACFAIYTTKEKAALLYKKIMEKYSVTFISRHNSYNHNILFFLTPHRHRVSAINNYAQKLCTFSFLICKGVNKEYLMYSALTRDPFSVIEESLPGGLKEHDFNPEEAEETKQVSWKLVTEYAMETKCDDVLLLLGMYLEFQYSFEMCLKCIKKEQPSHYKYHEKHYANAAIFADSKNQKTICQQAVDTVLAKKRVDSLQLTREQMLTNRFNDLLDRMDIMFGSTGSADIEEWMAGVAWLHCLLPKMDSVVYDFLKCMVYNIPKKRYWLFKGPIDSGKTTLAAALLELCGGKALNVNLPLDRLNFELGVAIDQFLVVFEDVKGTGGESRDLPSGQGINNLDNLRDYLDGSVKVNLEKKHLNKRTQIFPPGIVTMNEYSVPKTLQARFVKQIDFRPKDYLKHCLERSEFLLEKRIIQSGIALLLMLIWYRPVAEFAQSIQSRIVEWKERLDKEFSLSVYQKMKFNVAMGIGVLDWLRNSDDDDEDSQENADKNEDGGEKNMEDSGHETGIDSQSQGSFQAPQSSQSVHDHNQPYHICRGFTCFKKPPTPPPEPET
compound,measurement,setting,value
O=C1NC(=S)N(c2ccccc2F)C(=O)/C1=C/Nc1ccc(N2CCOCC2)cc1,IC50,Large T antigen,4.54 µM (active)
Cc1ccc2cc(C=C3C(=O)NC(=O)NC3=O)c(O)nc2c1,IC50,Genome polyprotein,79 µM (active)
same,IC50,Large T antigen,> 100 µM (active)
COC(=O)CC1C(=O)NCCN1C(=S)Nc1cccc(C)c1 (centres undefined),IC50,Coagulation factor XII,> 50 µM (inactive)
O=C(c1ccc2ncsc2c1)N1CCN(c2ccc(O)cc2)CC1,AC50,Cytochrome P450 3A4,3.55 µM (inconclusive)
same,AC50,Cytochrome P450 2C19,20 µM (inconclusive)
same,AC50,Cytochrome P450 2C9,1.78 µM (inconclusive)
same,IC50,Large T antigen,14.4 µM (active)
CC(C)c1cccc(-c2ccc3c(c2)S(=O)(=O)c2cccc(C(=O)O)c2C3=O)c1,IC50,Genome polyprotein,66.2 µM (active)
O=C(CN=C(S)N(Cc1ccccc1)Cc1ccccc1F)NCCc1ccccc1,IC50,Coagulation factor XII,> 50 µM (inactive)
CCNc1ccc(N=Nc2c(C)n(C)n(-c3ccccc3)c2=O)cc1,IC50,Large T antigen,7.88 µM (active)
Nc1nc(-c2cccs2)c(NC(=O)c2ccccc2)s1,EC50,[1],27.4 µM (active)
same,EC50,[2],23.8 µM (active)
same,IC50,Large T antigen,23.2 µM (active)
Cc1ccc2nc(NC(=O)C3CCCN(S(=O)(=O)c4cccc5nsnc45)C3)sc2c1 (centres undefined),IC50,Coagulation factor XII,> 50 µM (inactive)
same,CC50,[3],29.4 µM (active)
O=C(NNc1cc(Br)c(O)c(Br)c1)c1ccccc1,IC50,Genome polyprotein,63.2 µM (active)
same,AC50,[4],0.192 µM (active)
COCCNC(=O)CC(NS(=O)(=O)c1ccc(C)cc1)c1ccco1 (centres undefined),IC50,Coagulation factor XII,> 50 µM (inactive)
CC(=O)Nc1ccc(NC(=O)CSc2ncnn2-c2ccccc2)cc1,IC50,Coagulation factor XII,> 50 µM (inactive)
same,AC50,Cytochrome P450 3A4,28.2 µM (inconclusive)
same,AC50,Cytochrome P450 1A2,28.2 µM (inconclusive)
same,AC50,Cytochrome P450 2C9,12.6 µM (inconclusive)
Cc1sc(NC(=O)c2ccco2)c(CN2CCN(c3ccc(F)cc3)CC2)c1C,IC50,Coagulation factor XII,> 50 µM (inactive)
Cc1c(C(=O)N2CCOCC2)sc2ncnc(N3CCc4ccccc4C3)c12,IC50,Coagulation factor XII,> 50 µM (inactive)
same,EC50,[5],> 112 µM (not active)
same,EC50,[6],> 112 µM (not active)
CC1CCOC2(O1)C(=O)Nc1ccccc12 (centres undefined),IC50,Coagulation factor XII,> 50 µM (inactive)
O=C(N/N=C/c1cc(Cl)cc([N+](=O)[O-])c1O)C(O)(c1ccccc1)c1ccccc1,EC50,Streptokinase A,> 150 µM (not active)
same,EC50,Streptococcus,7.21 µM (active)
same,EC50,[7],> 300 µM (not active)
same,EC50,[8],40.2 µM (active)
same,EC50,[9],3.8 µM (active)
O=C1NCCOC(=O)[C@@H](Cc2ccc(F)cc2)CC/C=C/C[C@@H]1CC(=O)N(CCO)Cc1ccccc1,AC50,[10],29.6 µM (active)
same,AC50,[11],> 70 µM (inactive)
O=C(N/N=C/c1ccc(O)c(O)c1)c1cccc(S(=O)(=O)N2CCCCC2)c1,IC50,[12],85.3 µM (active)
same,IC50,Large T antigen,4.75 µM (active)
C/N=c1\scc(C)n1/N=C/c1ccc(O)cc1,IC50,[12],20.9 µM (active)
same,IC50,Large T antigen,8.35 µM (active)
